Measured values taken from PubChem BioAssay AID1963831 (Molecular Pharmacology Branch, DTP, NCI, 2024).
pIC50: −log10 of the molar value.

Test system: 889142-216-R-J1-PDC complex spheroid viability
Assay: Anticancer human tumor 889142-216-R-J1-PDC patient-derived bladder carcinoma cell line growth inhibition [POLQ]
Conditions: for pIC50: curve of first compound; for viability, T/C: stronger effect = lower value
Method in brief: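 Complex spheroid viability model combining PDC tumour cells with endothelial (HUVEC) and MSC stromal cells. Novobiocin, ART-558 or RP6685 were tested singly and in combination with standard and investigational anticancer drugs. Each was titrated in half-log steps from near clinical Cmax, or from 10 microM where Cmax was unknown.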

[1] = second compound 0.0316 µM, first compound 0.0316 µM
[2] = second compound 0.0316 µM, first compound 0.1 µM
[3] = second compound 0.0316 µM, first compound 0.316 µM
[4] = second compound 0.0316 µM, first compound 1 µM
[5] = second compound 0.0316 µM, first compound 3.16 µM
[6] = second compound 0.0316 µM, first compound 10 µM
[7] = second compound 0.1 µM, first compound 0.0316 µM
[8] = second compound 0.1 µM, first compound 0.1 µM
[9] = second compound 0.1 µM, first compound 0.316 µM
[10] = second compound 0.1 µM, first compound 1 µM
[11] = second compound 0.1 µM, first compound 3.16 µM
[12] = second compound 0.1 µM, first compound 10 µM
[13] = second compound 0.316 µM, first compound 0.0316 µM
[14] = second compound 0.316 µM, first compound 0.1 µM
[15] = second compound 0.316 µM, first compound 0.316 µM
[16] = second compound 0.316 µM, first compound 1 µM
[17] = second compound 0.316 µM, first compound 3.16 µM
[18] = second compound 0.316 µM, first compound 10 µM
[19] = second compound 1 µM, first compound 0.0316 µM
[20] = second compound 1 µM, first compound 0.1 µM
[21] = second compound 1 µM, first compound 0.316 µM
[22] = second compound 1 µM, first compound 1 µM
[23] = second compound 1 µM, first compound 3.16 µM
[24] = second compound 1 µM, first compound 10 µM
[25] = second compound 3.16 µM, first compound 0.0316 µM
[26] = second compound 3.16 µM, first compound 0.1 µM
[27] = second compound 3.16 µM, first compound 0.316 µM
[28] = second compound 3.16 µM, first compound 1 µM
[29] = second compound 3.16 µM, first compound 3.16 µM
[30] = second compound 3.16 µM, first compound 10 µM
[31] = second compound 10 µM, first compound 0.0316 µM
[32] = second compound 10 µM, first compound 0.1 µM
[33] = second compound 10 µM, first compound 0.316 µM
[34] = second compound 10 µM, first compound 1 µM
[35] = second compound 10 µM, first compound 3.16 µM
[36] = second compound 10 µM, first compound 10 µM
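Also: spheroids exposed to compounds for seven days.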
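For viability, T/C in this document: 100% = DMSO vehicle control viability.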

O=c1[nH]cc(F)c(=O)[nH]1 + COC1C(OC(N)=O)C(O)C(Oc2ccc3c(O)c(NC(=O)c4ccc(O)c(CC=C(C)C)c4)c(=O)oc3c2C)OC1(C)C
pIC50 (second compound 0.0316 µM): < 5.00 | pIC50 (second compound 0.1 µM): < 5.00 | pIC50 (second compound 0.316 µM): < 5.00 | pIC50 (second compound 1 µM): < 5.00 | pIC50 (second compound 3.16 µM): < 5.00 | pIC50 (second compound 10 µM): < 5.00 | viability, T/C [1]: 98.8% | viability, T/C [2]: 99.2% | viability, T/C [3]: 94.5% | viability, T/C [4]: 75% | viability, T/C [5]: 74% | viability, T/C [6]: 70.6% | viability, T/C [7]: 121% | viability, T/C [8]: 107% | viability, T/C [9]: 75.3% | viability, T/C [10]: 67.2% | viability, T/C [11]: 75.2% | viability, T/C [12]: 77.5% | viability, T/C [13]: 112% | viability, T/C [14]: 113% | viability, T/C [15]: 95.1% | viability, T/C [16]: 83.6% | viability, T/C [17]: 85.8% | viability, T/C [18]: 72.6% | viability, T/C [19]: 106% | viability, T/C [20]: 123% | viability, T/C [21]: 92.5% | viability, T/C [22]: 78.8% | viability, T/C [23]: 77.6% | viability, T/C [24]: 67.8% | viability, T/C [25]: 112% | viability, T/C [26]: 90.2% | viability, T/C [27]: 73.3% | viability, T/C [28]: 79.3% | viability, T/C [29]: 78.9% | viability, T/C [30]: 78% | viability, T/C [31]: 90.5% | viability, T/C [32]: 103% | viability, T/C [33]: 87.8% | viability, T/C [34]: 89.7% | viability, T/C [35]: 70.5% | viability, T/C [36]: 69.8%

CCCS(=O)(=O)Nc1ccc(F)c(C(=O)c2c[nH]c3ncc(-c4ccc(Cl)cc4)cc23)c1F + COC1C(OC(N)=O)C(O)C(Oc2ccc3c(O)c(NC(=O)c4ccc(O)c(CC=C(C)C)c4)c(=O)oc3c2C)OC1(C)C
pIC50 (second compound 0.0316 µM): 5.26 | pIC50 (second compound 0.1 µM): 5.30 | pIC50 (second compound 0.316 µM): 5.15 | pIC50 (second compound 1 µM): 5.21 | pIC50 (second compound 3.16 µM): 5.28 | pIC50 (second compound 10 µM): 5.21 | viability, T/C [1]: 108% | viability, T/C [2]: 108% | viability, T/C [3]: 93.5% | viability, T/C [4]: 109% | viability, T/C [5]: 62.2% | viability, T/C [6]: 36.9% | viability, T/C [7]: 126% | viability, T/C [8]: 110% | viability, T/C [9]: 98.5% | viability, T/C [10]: 91.9% | viability, T/C [11]: 55% | viability, T/C [12]: 34.9% | viability, T/C [13]: 126% | viability, T/C [14]: 98.3% | viability, T/C [15]: 92.8% | viability, T/C [16]: 99.5% | viability, T/C [17]: 69.7% | viability, T/C [18]: 39.6% | viability, T/C [19]: 101% | viability, T/C [20]: 109% | viability, T/C [21]: 104% | viability, T/C [22]: 93.9% | viability, T/C [23]: 64.5% | viability, T/C [24]: 40% | viability, T/C [25]: 116% | viability, T/C [26]: 115% | viability, T/C [27]: 98% | viability, T/C [28]: 80.4% | viability, T/C [29]: 63.9% | viability, T/C [30]: 34.6% | viability, T/C [31]: 104% | viability, T/C [32]: 105% | viability, T/C [33]: 95.5% | viability, T/C [34]: 90% | viability, T/C [35]: 68.2% | viability, T/C [36]: 36.2%

COc1cccc(OCCCN)c1-c1cc(Nc2cnc(C#N)cn2)n[nH]1 + Nc1ccc(C#CCN(C(=O)Cc2ncc(C(F)(F)F)cc2C(F)(F)F)c2ccc(F)cc2)nn1
pIC50 (second compound 0.0316 µM): 6.87 | pIC50 (second compound 0.1 µM): 6.79 | pIC50 (second compound 0.316 µM): 7.03 | pIC50 (second compound 1 µM): 7.48 | pIC50 (second compound 3.16 µM): 7.53 | pIC50 (second compound 10 µM): < 6.00 | viability, T/C (second compound 0.0316 µM, first compound 0.00316 µM): 100% | viability, T/C (second compound 0.0316 µM, first compound 0.01 µM): 77.4% | viability, T/C [1]: 60.2% | viability, T/C [2]: 45.8% | viability, T/C [3]: 51% | viability, T/C [4]: 49% | viability, T/C (second compound 0.1 µM, first compound 0.00316 µM): 98.5% | viability, T/C (second compound 0.1 µM, first compound 0.01 µM): 75.1% | viability, T/C [7]: 57.9% | viability, T/C [8]: 54.6% | viability, T/C [9]: 45.8% | viability, T/C [10]: 46.2% | viability, T/C (second compound 0.316 µM, first compound 0.00316 µM): 99.6% | viability, T/C (second compound 0.316 µM, first compound 0.01 µM): 71.8% | viability, T/C [13]: 49.9% | viability, T/C [14]: 49.9% | viability, T/C [15]: 56.8% | viability, T/C [16]: 43.6% | viability, T/C (second compound 1 µM, first compound 0.00316 µM): 79.1% | viability, T/C (second compound 1 µM, first compound 0.01 µM): 68% | viability, T/C [19]: 50% | viability, T/C [20]: 44.5% | viability, T/C [21]: 49% | viability, T/C [22]: 39.5% | viability, T/C (second compound 3.16 µM, first compound 0.00316 µM): 76.8% | viability, T/C (second compound 3.16 µM, first compound 0.01 µM): 76.7% | viability, T/C [25]: 47.7% | viability, T/C [26]: 48.9% | viability, T/C [27]: 54% | viability, T/C [28]: 41.9% | viability, T/C (second compound 10 µM, first compound 0.00316 µM): 85.8% | viability, T/C (second compound 10 µM, first compound 0.01 µM): 70.6% | viability, T/C [31]: 55.8% | viability, T/C [32]: 51.8% | viability, T/C [33]: 61% | viability, T/C [34]: 45.6%

CC1COCCN1c1cc(-c2ccnn2C)c2ccnc(-c3ccn[nH]3)c2n1 (stereo not drawn) + COC1C(OC(N)=O)C(O)C(Oc2ccc3c(O)c(NC(=O)c4ccc(O)c(CC=C(C)C)c4)c(=O)oc3c2C)OC1(C)C
pIC50 (second compound 0.0316 µM): 6.67 | pIC50 (second compound 0.1 µM): 6.79 | pIC50 (second compound 0.316 µM): 6.77 | pIC50 (second compound 1 µM): 6.53 | pIC50 (second compound 3.16 µM): 6.47 | pIC50 (second compound 10 µM): 6.54 | viability, T/C [1]: 97.8% | viability, T/C [2]: 56.2% | viability, T/C [3]: 46.4% | viability, T/C [4]: 45% | viability, T/C [5]: 31.5% | viability, T/C [6]: 30% | viability, T/C [7]: 79% | viability, T/C [8]: 53.3% | viability, T/C [9]: 40.4% | viability, T/C [10]: 41.7% | viability, T/C [11]: 34.1% | viability, T/C [12]: 25.9% | viability, T/C [13]: 90.5% | viability, T/C [14]: 55.5% | viability, T/C [15]: 39.6% | viability, T/C [16]: 45.2% | viability, T/C [17]: 38.2% | viability, T/C [18]: 28.6% | viability, T/C [19]: 77.2% | viability, T/C [20]: 58.6% | viability, T/C [21]: 48% | viability, T/C [22]: 40.9% | viability, T/C [23]: 36.2% | viability, T/C [24]: 25.9% | viability, T/C [25]: 71.5% | viability, T/C [26]: 59.5% | viability, T/C [27]: 48.8% | viability, T/C [28]: 42.8% | viability, T/C [29]: 35.3% | viability, T/C [30]: 26.4% | viability, T/C [31]: 79% | viability, T/C [32]: 55.8% | viability, T/C [33]: 49.7% | viability, T/C [34]: 43.6% | viability, T/C [35]: 34.2% | viability, T/C [36]: 27.5%
